Assay: solubility of BTA in water (FIG. 1)
Assay type: physicochemical

- solubility of BTA in water (10° C.): about 1%
- solubility of BTA in water (20° C.): about 1.9%
- solubility of BTA in water (30° C.): about 4%
- solubility of BTA in water (80° C.): about 8%
- solubility in water (water of 20° C.): about 1.9 wt-%
SMILES: c1ccc2[nH]nnc2c1 [BTA, benzotriazole]

Source: patent publication US7186354B2, “Anticorrosive treating concentrate” (NEC Electronics Corporation, priority 2000, dated 2007)
